Experimental data taken from patent publication US7625905B2, “Octahydro-pyrrolo[3,4-c]pyrrole CCR5 receptor antagonists” (Roche Palo Alto LLC, priority 2006, dated 2009).

Assays:
CCR5 [1] = biological target: T1, CCR5 (Homo sapiens, UniProt P51681); assay: CCR5-mediated CCF (cell-cell fusion) assay, Hela-R5 / CEM-NKr-CCR5-Luc luciferase readout; format: cell-based; set-up: host or cells: CEM-NKr-CCR5-Luc cells, co-cultured with Hela-R5 cells expressing gp160 and Tat; conditions: Hela-R5 and CEM-NKr-CCR5-Luc co-culture 24 hrs
Method: The capacity for novel compounds of the present invention to bind to the CCR5 receptor and thereby antagonize CCR5 function can be evaluated with assay systems known in the art.
Hela-R5 cells (express gp160 from R5-tropic virus and HIV-1 Tat) were plated in 384 well white culture plates (BD Bioscience, Palo Alto, Calif.) at 7.5×10^3 cells per well in phenol red-free Dulbecco's Modified Eagle Medium (DMEM) supplemented with 10% FBS, 1× Pen-Strep, 300 μg/ml G418, 100 μg/ml hygromycin, and 1 μg/ml Doxycycline (Dox) (BD Bioscience, Palo Alto, Calif.), using Multimek (Beckman, Fullerton, Calif.) and incubated at 37° C. overnight to induce the expression of gp160. Ten μl diluted compounds in medium containing 5% DMSO were added to the cells, followed by the addition of CEM-NKr-CCR5-Luc (obtained from NIH AIDS Research & Reference Reagents Program) that expresses CD4 and CCR5 and carries a HIV-2 long terminal repeat (LTR)-driven luciferase reporter gene at 1.5×10^4 cells/15 μL/well and incubated for 24 hrs. At the end of co-culture, 15 μl of Steady-Glo luciferase substrate was added into each well, and the cultures were sealed and gently shaken for 45 min. The luciferase activity were measured for 10 sec per well as luminescence by using 16-channel TopCount NXT (PerkinElmer, Shelton, Conn.) with 10 min dark adaptation and the readout is count per second (CPS). For the drug interaction experiments, small molecule compounds or antibodies were serially diluted in serum-free and phenol red-free RPMI containing 5% dimethyl sulfoxide (DMSO) (CalBiochem, La Jolla, Calif.) and 1× Pen-Strep. Five μl each of the two diluted compound or mAb to be tested for drug-drug interactions were added to the Hela-R5 cells right before the addition of target cells.

CCR5 [2] = biological target: T1, CCR5; assay: Human CCR5 receptor-ligand binding (RANTES) assay; set-up: expressed in transfected cells; conditions: 125I RANTES 0.1 nM, CHO-Gα16-hCCR5 cells
Method: The construct was transfected into CHO-Gα16 cells by using Fugene Reagent (Roche).
Adherent cells in […] tissue culture flask (˜90% confluent) were harvested using 1 mM EDTA in PBS (phosphate-buffered saline) without Ca^2+ and Mg^2+. Cells were washed twice with PBS containing no Ca^2+ and Mg^2+.
Eighty μl CHO-Gα16-hCCR5 (1×10^6/ml) cells were added to 96 well plates.
The compound dilutions were made in PBS, 1% BSA. Total reaction volume was 100 μl per well. The test compounds were added to the cells prior to the addition of radioligand.
After incubation, the cells were harvested onto GF/C filter plates using Packard cell harvester. Filters were pretreated with 0.3% PEI/0.2% BSA for 30 min. The filter plate was washed rapidly 5 times with 25 mM HEPES, 500 mM NaCl, 1 mM CaCl2 and 5 mM MgCl2 adjusted to pH 7.1. Plates were dried in oven (70° C.) for 20 min, added with 40 μl scintillation fluid and sealed with Packard TopSeal-A. Packard Top Count was used to measure of the radioactivity for 1 min per well.
Total binding was determined with control wells added with radioisotope and buffer and the non-specific binding was determined using an excess cold RANTES to some of the control wells. Specific binding was determined by subtracting the non-specific form total binding. […] IC50 values were determined using varying concentrations of the test ligand in triplicates and the data was analyzed using GraphPad Prism (GraphPad, San Diego, Calif.).

[3] = test system: collagen induced arthritis; conditions: collagen-induced arthritis model; cited from earlier work
CCR5 [4] = biological target: T1, CCR5; assay: Chemotaxis assay with L1.2hCCR5 cells; format: cell-based; set-up: expressed in transfected cells; conditions: Inhibition of RANTES stimulated chemotaxis
Text: A chemotaxis assay is a functional assay which measures the ability of a non-adherent cell line expressing human CCR5 receptor to migrate across a membrane in response to either test compounds or natural attractant ligand(s) (i.e., RANTES, MIP-1β). Generally, chemotaxis assays monitor the directional movement or migration of a suitable cell (such as a leukocyte (e.g., lymphocyte, eosinophil, basophil)) into or through a barrier (e.g., endothelium, a permeable filter membrane), toward, from a first surface of the barrier toward an opposite second surface containing attractant ligands. Membranes or filters provide convenient barriers to monitor the directional movement or migration of a suitable cell into or through a filter, toward increased levels of an attractant. […]
After the incubation period, the cells are scraped off the filter and the plates are spun in a table top centrifuge at 2,000 rpm for 10 min. The filter is then removed and the density of the cells that have migrated to the bottom wells is detected using CyQUANT^R cell proliferation assay kit (Invitrogen) and the Spectra MAX GeminiXS plate reader (Molecular Devices) according to the manufacturers' instructions. Using the fluorescence measurements the percent migration is determined by % migration=[1−(max−obs)/(max−min)]×100. […] This is calculated with Excel Fit.

T1 sequence (P51681 whole entry, the tested form may be a part): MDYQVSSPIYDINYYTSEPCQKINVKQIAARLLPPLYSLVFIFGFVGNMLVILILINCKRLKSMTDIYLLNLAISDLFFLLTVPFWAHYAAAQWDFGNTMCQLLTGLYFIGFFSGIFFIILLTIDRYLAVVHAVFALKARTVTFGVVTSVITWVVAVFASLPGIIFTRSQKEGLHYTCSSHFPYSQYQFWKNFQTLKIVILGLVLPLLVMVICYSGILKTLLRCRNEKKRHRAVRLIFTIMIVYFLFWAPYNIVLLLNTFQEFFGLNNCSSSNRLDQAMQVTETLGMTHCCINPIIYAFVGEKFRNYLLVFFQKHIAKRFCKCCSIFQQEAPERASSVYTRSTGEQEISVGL

| Compound | IC50 (CCR5 [1]) | IC50 (CCR5 [2]) | incidence and severity of arthritis [3] | infiltration of inflammatory CCR5+ T-cells into the joint [3] | IC50 (CCR5 [4]) |
| --- | --- | --- | --- | --- | --- |
| 1-(4-{3-[5-(4,6-Dimethyl-pyrimidine-5-carbonyl)-hexahydro-pyrrolo[3,4-c]pyrrol-2-yl]-1-phenyl-propyl}-piperidin-1-yl)-2-methyl-propan-1-one [V-15] | 0.202 µM | 0.0082 µM |  |  |  |
| Cc1ncnc(C)c1C(=O)N1CC2CN(CCC3(c4ccccc4)CCN(C(=O)OC(C)(C)C)CC3)CC2C1 (stereo not shown) [I-1, tert-Butyl 4-{2-[5-(4,6-dimethyl-pyrimidine-5-carbonyl)-hexahydro-pyrrolo[3,4-c]pyrrol-2-yl]-ethyl}-4-phenyl-piperidine-1-carboxylate] | 0.835 µM | 0.835 µM |  |  |  |
| Cc1ncnc(C)c1C(=O)N1CC2CN(CCC3(c4cccc(F)c4)CCN(C(=O)c4ccccc4)CC3)CC2C1 (stereo not shown) [I-3] | 0.306 µM | 0.0776 µM |  |  |  |
| Cc1ncnc(C)c1C(=O)N1CC2CN(CCC3(c4ccccc4)CCN(C(=O)c4ccc(S(N)(=O)=O)cc4)CC3)CC2C1 (stereo not shown) [I-9] | 2.5 µM | 0.5 µM |  |  |  |
| Cc1ncnc(C)c1C(=O)N1CC2CN(CCC3(c4ccccc4)CCN(C(=O)c4cccc(S(=O)(=O)N(C)C)c4)CC3)CC2C1 (stereo not shown) [I-14] | 1.2 µM | 0.0484 µM |  |  |  |
| Cc1ncnc(C)c1C(=O)N1CC2CN(CCC3(c4cccc(F)c4)CCN(C(=O)c4cccc(S(=O)(=O)N(C)C)c4)CC3)CC2C1 (stereo not shown) [I-19] | 0.393 µM | 0.0509 µM |  |  |  |
| Cc1ncnc(C)c1C(=O)N1CC2CN(CCC3(c4ccccc4)CN(C(=O)CC4CCCC4)C3)CC2C1 (stereo not shown) [II-6] | 0.136 µM | 0.0277 µM |  |  |  |
| Cc1ncnc(C)c1C(=O)N1CC2CN(CCC3(c4ccccc4)CN(C(=O)C4(C(F)(F)F)CC4)C3)CC2C1 (stereo not shown) [II-15] | 0.486 µM | 0.0515 µM |  |  |  |
| Cc1ncnc(C)c1C(=O)N1CC2CN(CCC3(c4ccccc4)CN(S(=O)(=O)C(C)C)C3)CC2C1 (stereo not shown) [II-19] |  | 0.105 µM |  |  |  |
| Cc1ncnc(C)c1C(=O)N1CC2CN(CCC3(c4ccccc4)CN(S(=O)(=O)C4CCCC4)C3)CC2C1 (stereo not shown) [II-22, {5-[2-(1-Cyclopentanesulfonyl-3-phenyl-azetidin-3-yl)-ethyl]-hexahydro-pyrrolo[3,4-c]pyrrol-2-yl}-(4,6-dimethyl-pyrimidin-5-yl)-methanone] | 0.458 µM | 0.0271 µM |  |  |  |
| Cc1cc(=O)oc(C)c1C(=O)N1CC2CN(CCC3(c4ccccc4)CN(C(=O)C4CCC(F)(F)CC4)C3)CC2C1 (stereo not shown) [II-33] | 0.0026 µM | 0.0113 µM |  |  |  |
| Cc1ncnc(C)c1C(=O)N1CC2CN(CCC3(c4ccccc4)CN(C(=O)C4CCC(F)(F)CC4)C3)CC2C1 (stereo not shown) [II-39] | 0.0095 µM | 0.0188 µM |  |  |  |
| Cc1cc(C#N)nc(C)c1C(=O)N1CC2CN(CCC3(c4ccccc4)CCN(C(=O)C(C)(C)C)C3)CC2C1 (stereo not shown) [III-8] | 0.36 µM | 0.0688 µM |  |  |  |
| Cc1ncnc(C)c1C(=O)N1CC2CN(CCC(c3ccccc3)C3CN(C(=O)C(C)C)C3)CC2C1 (stereo not shown) [IV-10] | 0.458 µM | 0.244 µM |  |  |  |
| Cc1ncnc(C)c1C(=O)N1CC2CN(CCC(c3cccc(F)c3)C3CN(S(=O)(=O)c4cccc(F)c4)C3)CC2C1 (stereo not shown) [IV-14] | 0.0042 µM | 0.0386 µM |  |  |  |
| Cc1ccc(-c2ccc3c(c2)C=C(C(=O)Nc2ccc(C[N+](C)(C)C4CCOCC4)cc2)CCC3)cc1.[Cl-] [TAK-779] |  |  | reduce both the incidence and severity of arthritis | inhibited |  |
| COC(=O)N1CCC(C(CCN2CC3CN(C(=O)c4c(C)ncnc4C)CC3C2)c2ccccc2)CC1 (stereo not shown) [V-7, 4-{3-[5-(4,6-Dimethyl-pyrimidine-5-carbonyl)-hexahydro-pyrrolo[3,4-c]pyrrol-2-yl]-1-phenyl-propyl}-piperidine-1-carboxylic acid methyl ester] | 0.744 µM | 0.102 µM |  |  |  |
| Cc1ncnc(C)c1C(=O)N1CC2CN(CCC(c3ccccc3)C3CCN(S(C)(=O)=O)CC3)CC2C1 (stereo not shown) [V-12] |  |  |  |  | 0.765 µM |
